Data reported in EP4790046A1, “NOVEL COMPOUND DERIVED FROM MYRISTICA FRAGRANS, AND ANTICANCER COMPOSITION COMPRISING SAME” (Korea Institute of Science and Technology, priority 2023, dated 2025).

Tests used:
[1] = test system: MiaPaCa-2; assay: alamarBlue cell viability (survival rate), MiaPaCa-2; type: cell-based; conditions: Homo sapiens, MIA PaCa-2; MiaPaCa-2 (pancreatic cancer), compound 10 µM, 48 hours; read-out: Cancer cell line survival rate (%)
Description: (§1) A p-value < 0.05 was considered statistically significant.

[2] = test system: HepG2; assay: alamarBlue cell viability (survival rate), HepG2; type: cell-based; conditions: Homo sapiens; HepG2 (liver cancer), compound 10 µM, 48 hours; read-out: Cancer cell line survival rate (%)
Description: as §1

[3] = test system: AGS; assay: alamarBlue cell viability (survival rate, IC50), AGS; type: cell-based; conditions: Homo sapiens; AGS (gastric cancer), compound 10 µM, 48 hours; read-out: Cancer cell line survival rate (%)
Description: as §1

[4] = test system: SW48; assay: alamarBlue cell viability (survival rate, IC50), SW48; type: cell-based; conditions: Homo sapiens; SW48 (colorectal cancer), compound 10 µM, 48 hours; read-out: Cancer cell line survival rate (%)
Description: as §1

[5] = test system: SNU-81; assay: alamarBlue cell viability (survival rate, IC50), SNU-81; type: cell-based; conditions: SNU-81 (colorectal cancer), compound 10 µM, 48 hours; read-out: Cancer cell line survival rate (%)
Description: as §1

[6] = test system: SNU466; assay: alamarBlue cell viability (survival rate), SNU466; type: cell-based; conditions: SNU466 (glioblastoma), compound 10 µM, 48 hours; read-out: Cancer cell line survival rate (%)
Description: as §1

[7] = test system: SNU201; assay: alamarBlue cell viability (survival rate), SNU201; type: cell-based; conditions: SNU201 (glioblastoma), compound 10 µM, 48 hours; read-out: Cancer cell line survival rate (%)
Description: as §1

[8] = test system: various cancer cell lines; assay: alamarBlue cell viability, statements across the cell line panel; conditions: various cancer cell lines
Description: AGS, SW48, HepG2, and MiaPaCa-2 was purchased from ATCC (American Type Culture Collection, USA), SNU cell lines from the Korean Cell Line Bank (KCLB, Korea), and 23132/87 from the Leibniz Institute DSMZ - German Collection of Microorganisms and Cell Cultures GmbH (DSMZ, Germany). All cell lines were cultured in RPMI-1640 medium (HyClone, USA) supplemented with 10% FBS (Gibco, USA) and 1% penicillin-streptomycin (HyClone, USA) under conditions of 5% CO2, 37°C.
Cells were seeded at a density of 5 × 10^3cells/well in a 96-well plate for 24 hours, then treated with the compound at an appropriate concentration (10 µM) for 48 hours. After treatment, alamarBlue reagent was added at a volume ratio of 1/10 of the treatment volume and incubated for 4 hours in a 37°C cell incubator (protected from direct light). Cell viability was then determined by measuring absorbance values at 570 nm and 600 nm using a microplate reader. The anticancer effects of candidate compounds were evaluated by assessing the cell viability (%) of cells treated at specific concentrations and the half-maximal inhibitory concentration (IC50) of each natural product. Doxorubicin and oxaliplatin were used as positive controls for gastric and colorectal cancer, respectively.
Statistical analysis was performed using R software (version 4.2.2) (R Core Team). Differences between groups were assessed using student's t-test or 1-way ANOVA followed by post-hoc Tukey HSD test. A p-value < 0.05 was considered statistically significant.
Further, to measure the IC50 values against six cancer cell lines.

[9] = test system: 23132/87; assay: alamarBlue cell viability (survival rate, IC50), 23132/87; type: cell-based; conditions: 23132/87 (gastric cancer), compound 10 µM, 48 hours; read-out: Cancer cell line survival rate (%)
Description: as §1

[10] = test system: SNU-719; assay: alamarBlue cell viability (survival rate, IC50), SNU-719; type: cell-based; conditions: SNU-719 (gastric cancer), compound 10 µM, 48 hours; read-out: Cancer cell line survival rate (%)
Description: as §1

[11] = test system: SNU-C5; assay: alamarBlue cell viability (survival rate, IC50), SNU-C5; type: cell-based; conditions: SNU-C5 (colorectal cancer), compound 10 µM, 48 hours; read-out: Cancer cell line survival rate (%)
Description: as §1

COc1cc(CC(C)C(C)C(c2ccc(O)c(OC)c2)c2ccc(O)c(C(=O)CCCCCCCCc3ccc(O)c(O)c3)c2O)ccc1O (stereo not drawn) [Compound 15, Myricone P]
viability at 10 µM [1]: 4.32% | viability at 10 µM [2]: 3.18% | viability at 10 µM [3]: 8.49% | viability at 10 µM [4]: 3.93% | viability at 10 µM [5]: 6.63% | viability at 10 µM [6]: 0.99% | viability at 10 µM [7]: 31.4% | anticancer activity [8]: high anticancer activity | viability at 10 µM [9]: 1.45% | viability at 10 µM [10]: 2.14% | viability at 10 µM [11]: 2.62%

COc1cc([C@H]2Oc3c(OC)cc(/C=C/Cc4cc(O)c(O)cc4CCCCCCCCC(=O)c4c(O)cccc4O)cc3[C@@H]2C)ccc1O [Compound 17, Myricone Q]
viability at 10 µM [1]: 59.9% | viability at 10 µM [2]: 108% | viability at 10 µM [3]: 80.5% | viability at 10 µM [4]: 60.2% | viability at 10 µM [5]: 113% | viability at 10 µM [6]: 45.6% | viability at 10 µM [7]: 105% | anticancer activity [8]: high anticancer activity | viability at 10 µM [9]: 85% | viability at 10 µM [10]: 54.9% | viability at 10 µM [11]: 58.5%

COc1ccc(/C=C/Cc2ccc(O)c(C(=O)CCCCCCCCc3ccc(O)c(O)c3)c2O)cc1OC [Compound 21, Myricone Z]
viability at 10 µM [1]: 7.58% | viability at 10 µM [2]: 6.05% | viability at 10 µM [3]: 6.86% | viability at 10 µM [4]: 3.51% | viability at 10 µM [5]: 33.6% | viability at 10 µM [6]: 0.95% | viability at 10 µM [7]: 67.8% | anticancer activity [8]: high anticancer activity | viability at 10 µM [9]: 2.4% | viability at 10 µM [10]: 4.6% | viability at 10 µM [11]: 6.53%
